Results from patent US20200325543A1, “DIAGNOSTIC METHOD” (TOLREMO THERAPEUTICS AG, priority 2017, published 2020).
Counter-ions that a name gives are not always drawn. Like-named read-outs stand apart in the source and are kept apart here.

System: SOX2
Assay: Screen of a library of FDA-approved drugs for SOX2 antibody staining in A375 cells treated with PLX4720 and AZD6244
Conditions: for cor. loess / raw / norm: A375 cells, 5 uM test drug with 1 uM PLX4720 and 0.5 uM AZD6244, 24 h; for cor. loess: normalized and geometry-corrected (loess) signal; for raw: raw signal (ratio of FL2 SOX2 antibody and FL3 nuclear staining), screen run in duplicate; for norm: signal after plate normalization
[1] = Z-test against negative controls (DMSO), single dose 5 uM

## CCCC(=O)O[C@]1(C(=O)COC(C)=O)CC[C@H]2[C@@H]3C[C@H](F)C4=CC(=O)C=C[C@]4(C)[C@@]3(F)[C@@H](O)C[C@@]21C [Difluprednate]
  cor. loess: 0.4529
  raw: 0.9801
  norm: 0.4293
[1]
  z: 4.842

## CCOC(=O)COc1ccc2c(=O)cc(-c3ccccc3)oc2c1 [EFLOXATE]
  cor. loess: 1.468
  raw: 0.955
  norm: 1.397
[1]
  z: 5.713

## CC[C@H]1CN2CCc3cc(OC)c(OC)cc3[C@@H]2C[C@@H]1C[C@H]1NCCc2cc(OC)c(OC)cc21 [EMETINE DIHYDROCHLORIDE]
  z: 11.78
  cor. loess: 1.429
  raw: 0.9485
  norm: 1.489

## Nc1ccccc1NC(=O)c1ccc(CNC(=O)OCc2cccnc2)cc1 [Entinostat (MS-275), Entinostat]
  cor. loess: 0.6933
  raw: 0.9672
  norm: 0.8427
[1]
  z: 5.41

## Cc1cc(C#N)cc(C)c1Oc1nc(Nc2ccc(C#N)cc2)nc(N)c1Br [Etravirine (TMC125), Etravirine]
  cor. loess: 0.646
  raw: 0.9731
  norm: 0.6589
[1]
  z: 6.907

## COC(=O)Nc1nc2ccc(Sc3ccccc3)cc2[nH]1 [FENBENDAZOLE]
  cor. loess: 0.4709
  raw: 0.9808
  norm: 0.4377
[1]
  z: 4.041

## O=c1[nH]c(=O)n([C@H]2C[C@H](O)[C@@H](CO)O2)cc1F [FLOXURIDINE]
  cor. loess: 0.3344
  raw: 0.9795
  norm: 0.4513
[1]
  z: 4.549

## CC(=O)OCC(=O)[C@@]1(O)CC[C@H]2[C@@H]3CCC4=CC(=O)CC[C@]4(C)[C@@]3(F)[C@@H](O)C[C@@]21C [FLUDROCORTISONE ACETATE]
  cor. loess: 0.4578
  raw: 0.977
  norm: 0.5063
[1]
  z: 3.773

## C[C@@H]1C[C@H]2[C@@H]3C[C@H](F)C4=CC(=O)C=C[C@]4(C)[C@@]3(F)[C@@H](O)C[C@]2(C)[C@@]1(O)C(=O)COC(=O)C(C)(C)C [FLUMETHAZONE PIVALATE]
  cor. loess: 0.4809
  raw: 0.9766
  norm: 0.5179
[1]
  z: 3.963

## CC1(C)O[C@@H]2C[C@H]3[C@@H]4C[C@H](F)C5=CC(=O)C=C[C@]5(C)[C@H]4[C@@H](O)C[C@]3(C)[C@]2(C(=O)CO)O1 [FLUNISOLIDE]
  cor. loess: 0.6279
  raw: 0.9737
  norm: 0.6807
[1]
  z: 5.388

## CC1(C)O[C@@H]2C[C@H]3[C@@H]4C[C@H](F)C5=CC(=O)C=C[C@]5(C)[C@@]4(F)[C@@H](O)C[C@]3(C)[C@]2(C(=O)CO)O1 [FLUOCINOLONE ACETONIDE]
  cor. loess: 0.4202
  raw: 0.9791
  norm: 0.434
[1]
  z: 3.463

## CC(=O)OCC(=O)[C@@]12OC(C)(C)O[C@@H]1C[C@H]1[C@@H]3C[C@H](F)C4=CC(=O)C=C[C@]4(C)[C@@]3(F)[C@@H](O)C[C@@]12C [FLUOCINONIDE]
  cor. loess: 0.4293
  raw: 0.9797
  norm: 0.4123
[1]
  z: 3.538

## CCC(=O)O[C@]1(C(=O)SCF)[C@H](C)C[C@H]2[C@@H]3C[C@H](F)C4=CC(=O)C=C[C@]4(C)[C@@]3(F)[C@@H](O)C[C@@]21C [FLUTICASONE PROPIONATE]
  cor. loess: 0.6875
  raw: 0.9704
  norm: 0.713
[1]
  z: 4.067

## C[C@]12CCC(=O)C(O)=C1CC[C@@H]1[C@@H]2CC[C@]2(C)C(=O)CC[C@@H]12 [FORMESTANE]
  cor. loess: 0.4179
  raw: 0.98
  norm: 0.3818
[1]
  z: 4.633

## COc1ccc(/C=C\c2cc(OC)c(OC)c(OC)c2)cc1OP(=O)([O-])[O-].[Na+].[Na+] [Fosbretabulin (Combretastatin A4 Phosphate (CA4P)) Disodium]
  cor. loess: 0.3981
  raw: 0.9814
  norm: 0.3844
[1]
  z: 4.256
